Measurements as given in PubChem BioAssay AID1918934 (Molecular Pharmacology Branch, DTP, NCI, 2023).

System: 292921-168-R-J2-PDC complex spheroid viability
Assay: Anticancer human tumor 292921-168-R-J2-PDC patient-derived pancreatic carcinoma cell line growth inhibition
Conditions: for IC50: curve of first compound; for viability, T/C: stronger effect = lower value
Outline: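 Complex spheroids of tumor cells with HUVEC and human MSCs, exposed to iadademstat combined with other agents. Each agent tested in half-log steps from near clinical Cmax (else 10 microM top), DMSO ≤0.25%.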

[1] = second compound 0.1 µM, first compound 0.000949 µM
[2] = second compound 0.1 µM, first compound 0.003 µM
[3] = second compound 0.1 µM, first compound 0.00949 µM
[4] = second compound 0.1 µM, first compound 0.03 µM
[5] = second compound 0.1 µM, first compound 0.0949 µM
[6] = second compound 0.1 µM, first compound 0.3 µM
[7] = second compound 0.316 µM, first compound 0.000949 µM
[8] = second compound 0.316 µM, first compound 0.003 µM
[9] = second compound 0.316 µM, first compound 0.00949 µM
[10] = second compound 0.316 µM, first compound 0.03 µM
[11] = second compound 0.316 µM, first compound 0.0949 µM
[12] = second compound 0.316 µM, first compound 0.3 µM
[13] = second compound 1 µM, first compound 0.000949 µM
[14] = second compound 1 µM, first compound 0.003 µM
[15] = second compound 1 µM, first compound 0.00949 µM
[16] = second compound 1 µM, first compound 0.03 µM
[17] = second compound 1 µM, first compound 0.0949 µM
[18] = second compound 1 µM, first compound 0.3 µM
[19] = second compound 3.16 µM, first compound 0.000949 µM
[20] = second compound 3.16 µM, first compound 0.003 µM
[21] = second compound 3.16 µM, first compound 0.00949 µM
[22] = second compound 3.16 µM, first compound 0.03 µM
[23] = second compound 3.16 µM, first compound 0.0949 µM
[24] = second compound 3.16 µM, first compound 0.3 µM
[25] = second compound 10 µM, first compound 0.000949 µM
[26] = second compound 10 µM, first compound 0.003 µM
[27] = second compound 10 µM, first compound 0.00949 µM
[28] = second compound 10 µM, first compound 0.03 µM
[29] = second compound 10 µM, first compound 0.0949 µM
[30] = second compound 10 µM, first compound 0.3 µM
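Note: seven day compound exposure before luminescent viability read.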
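Throughout, for viability, T/C: 100% = DMSO vehicle control wells.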

Structure (SMILES): CCc1c2c(nc3ccc(O)cc13)-c1cc3c(c(=O)n1C2)COC(=O)[C@]3(O)CC + NC1CC1c1ccc(-c2cccc(O)c2)cc1
- IC50 (second compound 0.1 µM): < 0.949 nM
- IC50 (second compound 0.316 µM): < 0.949 nM
- IC50 (second compound 1 µM): < 0.949 nM
- IC50 (second compound 3.16 µM): < 0.949 nM
- IC50 (second compound 10 µM): < 0.949 nM
- viability, T/C [1]: 4.87%
- viability, T/C [2]: 2.64%
- viability, T/C [3]: 1.33%
- viability, T/C [4]: 1.09%
- viability, T/C [5]: 0.85%
- viability, T/C [6]: 1.26%
- viability, T/C [7]: 4.37%
- viability, T/C [8]: 2.24%
- viability, T/C [9]: 1.21%
- viability, T/C [10]: 0.88%
- viability, T/C [11]: 1.1%
- viability, T/C [12]: 1.26%
- viability, T/C [13]: 4.54%
- viability, T/C [14]: 2.69%
- viability, T/C [15]: 1.23%
- viability, T/C [16]: 1.12%
- viability, T/C [17]: 1.21%
- viability, T/C [18]: 1.22%
- viability, T/C [19]: 4.42%
- viability, T/C [20]: 2.55%
- viability, T/C [21]: 1.18%
- viability, T/C [22]: 0.79%
- viability, T/C [23]: 1.06%
- viability, T/C [24]: 1.13%
- viability, T/C [25]: 5.79%
- viability, T/C [26]: 3.19%
- viability, T/C [27]: 1.1%
- viability, T/C [28]: 1.82%
- viability, T/C [29]: 2.43%
- viability, T/C [30]: 1.15%

Structure (SMILES): Nc1ccccc1NC(=O)c1ccc(CNC(=O)OCc2cccnc2)cc1 + NC1CC1c1ccc(-c2cccc(O)c2)cc1
- IC50 (second compound 0.1 µM): 29.5 nM
- IC50 (second compound 0.316 µM): < 9.49 nM
- IC50 (second compound 1 µM): 12.4 nM
- IC50 (second compound 3.16 µM): < 9.49 nM
- IC50 (second compound 10 µM): < 9.49 nM
- viability, T/C [3]: 60.9%
- viability, T/C [4]: 49%
- viability, T/C [5]: 34.9%
- viability, T/C [6]: 19.9%
- viability, T/C (second compound 0.1 µM, first compound 0.949 µM): 4.91%
- viability, T/C (second compound 0.1 µM, first compound 3 µM): 0.29%
- viability, T/C [9]: 48.2%
- viability, T/C [10]: 42.1%
- viability, T/C [11]: 31.2%
- viability, T/C [12]: 19.6%
- viability, T/C (second compound 0.316 µM, first compound 0.949 µM): 4.68%
- viability, T/C (second compound 0.316 µM, first compound 3 µM): 0.3%
- viability, T/C [15]: 53.6%
- viability, T/C [16]: 38.6%
- viability, T/C [17]: 33.7%
- viability, T/C [18]: 18.6%
- viability, T/C (second compound 1 µM, first compound 0.949 µM): 4.33%
- viability, T/C (second compound 1 µM, first compound 3 µM): 0.19%
- viability, T/C [21]: 47.7%
- viability, T/C [22]: 38.8%
- viability, T/C [23]: 29.6%
- viability, T/C [24]: 18.9%
- viability, T/C (second compound 3.16 µM, first compound 0.949 µM): 3.78%
- viability, T/C (second compound 3.16 µM, first compound 3 µM): 0.25%
- viability, T/C [27]: 41.9%
- viability, T/C [28]: 43.8%
- viability, T/C [29]: 30.1%
- viability, T/C [30]: 19%
- viability, T/C (second compound 10 µM, first compound 0.949 µM): 3.97%
- viability, T/C (second compound 10 µM, first compound 3 µM): 0.74%

Structure (SMILES): Nc1ccn(C2OC(CO)C(O)C2(F)F)c(=O)n1 (stereo not given) + NC1CC1c1ccc(-c2cccc(O)c2)cc1
- IC50 (second compound 0.1 µM): < 0.949 nM
- IC50 (second compound 0.316 µM): < 0.949 nM
- IC50 (second compound 1 µM): < 0.949 nM
- IC50 (second compound 3.16 µM): < 0.949 nM
- IC50 (second compound 10 µM): < 0.949 nM
- viability, T/C [1]: 29.5%
- viability, T/C [2]: 10.6%
- viability, T/C [3]: 6.54%
- viability, T/C [4]: 5.59%
- viability, T/C [5]: 7.33%
- viability, T/C [6]: 5.81%
- viability, T/C [7]: 30.2%
- viability, T/C [8]: 9.61%
- viability, T/C [9]: 4.8%
- viability, T/C [10]: 5.72%
- viability, T/C [11]: 5.73%
- viability, T/C [12]: 5.51%
- viability, T/C [13]: 27%
- viability, T/C [14]: 8.35%
- viability, T/C [15]: 5.25%
- viability, T/C [16]: 5.86%
- viability, T/C [17]: 5.98%
- viability, T/C [18]: 6.01%
- viability, T/C [19]: 27.8%
- viability, T/C [20]: 10%
- viability, T/C [21]: 5.33%
- viability, T/C [22]: 6.76%
- viability, T/C [23]: 5.59%
- viability, T/C [24]: 6.51%
- viability, T/C [25]: 28.4%
- viability, T/C [26]: 11.2%
- viability, T/C [27]: 7.89%
- viability, T/C [28]: 7.46%
- viability, T/C [29]: 7.74%
- viability, T/C [30]: 7.58%

Structure (SMILES): O=C(c1cc(Cc2n[nH]c(=O)c3ccccc23)ccc1F)N1CCN(C(=O)C2CC2)CC1 + NC1CC1c1ccc(-c2cccc(O)c2)cc1
- IC50 (second compound 0.1 µM): 4420 nM
- IC50 (second compound 0.316 µM): 2650 nM
- IC50 (second compound 1 µM): 2180 nM
- IC50 (second compound 3.16 µM): 1390 nM
- IC50 (second compound 10 µM): 278 nM
- viability, T/C (second compound 0.1 µM, first compound 0.0316 µM): 89.5%
- viability, T/C (second compound 0.1 µM, first compound 0.1 µM): 104%
- viability, T/C (second compound 0.1 µM, first compound 0.316 µM): 78.8%
- viability, T/C (second compound 0.1 µM, first compound 1 µM): 74.3%
- viability, T/C (second compound 0.1 µM, first compound 3.16 µM): 58.1%
- viability, T/C (second compound 0.1 µM, first compound 10 µM): 33.1%
- viability, T/C (second compound 0.316 µM, first compound 0.0316 µM): 75%
- viability, T/C (second compound 0.316 µM, first compound 0.1 µM): 67.8%
- viability, T/C (second compound 0.316 µM, first compound 0.316 µM): 67%
- viability, T/C (second compound 0.316 µM, first compound 1 µM): 68.9%
- viability, T/C (second compound 0.316 µM, first compound 3.16 µM): 46.6%
- viability, T/C (second compound 0.316 µM, first compound 10 µM): 31.2%
- viability, T/C (second compound 1 µM, first compound 0.0316 µM): 60.1%
- viability, T/C (second compound 1 µM, first compound 0.1 µM): 69.2%
- viability, T/C (second compound 1 µM, first compound 0.316 µM): 64.5%
- viability, T/C (second compound 1 µM, first compound 1 µM): 64.5%
- viability, T/C (second compound 1 µM, first compound 3.16 µM): 43.1%
- viability, T/C (second compound 1 µM, first compound 10 µM): 32.3%
- viability, T/C (second compound 3.16 µM, first compound 0.0316 µM): 64.5%
- viability, T/C (second compound 3.16 µM, first compound 0.1 µM): 60.1%
- viability, T/C (second compound 3.16 µM, first compound 0.316 µM): 63%
- viability, T/C (second compound 3.16 µM, first compound 1 µM): 54.1%
- viability, T/C (second compound 3.16 µM, first compound 3.16 µM): 39%
- viability, T/C (second compound 3.16 µM, first compound 10 µM): 32.8%
- viability, T/C (second compound 10 µM, first compound 0.0316 µM): 61.3%
- viability, T/C (second compound 10 µM, first compound 0.1 µM): 51.2%
- viability, T/C (second compound 10 µM, first compound 0.316 µM): 53.6%
- viability, T/C (second compound 10 µM, first compound 1 µM): 42.2%
- viability, T/C (second compound 10 µM, first compound 3.16 µM): 34%
- viability, T/C (second compound 10 µM, first compound 10 µM): 29.6%
